The values below come from patent US20150290260A1, “METHODS OF USE FOR PROBIOTICS AND PREBIOTICS” (Mead Johnson Nutrition Company, priority 2014, published 2015).

The nature of assay [1]: Viscera-motor response (VMR) to colorectal distension (CRD), rat colonic zymosan-treated hyperalgesia model. It counts as in vivo, rats. The method, then:
Example 3 utilized a rat colonic zymosan-treated hyperalgesia model (i.e. a model of post-inflammatory visceral pain sensitivity). Zymosan was injected into the colon during the neonatal period producing short-term inflammation and subsequent long-term colonic hypersensitivity.
In this experiment, weanling rats were fed a control diet or control diet plus LGG and/or PDX/GOS for 40 days. The VMR to CRD was quantified using electromyographic (EMG) recordings from the external oblique muscle of the abdomen as an objective measure of visceral sensation in all groups. A stimulus-response function to graded CRD was constructed to test the colonic intensity dependent increase in EMG activity change of external oblique muscle.

Assay [2] relates to neurotransmitters (biogenic monoamines) in the brain. Briefly: Neurotransmitter levels in the brain by HPLC, neonatal zymosan visceral hyperalgesia rats. It counts as in vivo. The note with it: brain stem, vs non-LGG treated rats, LGG P21-P60, FIG. 6A. The source says:
This example describes the effect of LGG on the neurotransmitter levels in the brain. Briefly, chronic visceral hyperalgesia was induced in rats by administration of intracolonic zymosan (or normal saline for control) for three consecutive days during postnatal day 14-16 (P14-P16). LGG treatment was initiated after weaning (P21) and continued until P60. The levels of neurotransmitters and amino acids were quantified in the frontal cortex, sub-cortex, brain stem and cerebellum.
The quantitative assessment of neurotransmitters was conducted using HPLC-based separation followed by fluorescent and/or electrochemical detection. Briefly, brain sections were homogenized, using a tissue dismembrator, in 100-750 ul of 0.1 M TCA, which contains 10-2 M sodium acetate, 10^-4 M EDTA, 5 ng/ml isoproterenol (as internal standard) and 10.5% methanol (pH 3.8). Samples were spun in a microcentrifuge at 10000 g for 20 minutes. Samples of the supernatant were then analyzed for neurotransmitters (biogenic monoamines). Biogenic amines were determined by a specific HPLC assay utilizing an Antec Decade II (oxidation: 0.4) (3 mm GC WE, HYREF) electrochemical detector operated at 33° C. Twenty I samples of the supernatant were injected using a Water 2707 autosampler onto a Phenomenex Kintex (2.6u, 100 Å) C18 HPLC column (100×4.60 mm). Biogenic amines were eluted with a mobile phase consisting of 89.5% 0.1 M TCA, 10-2 M sodium acetate, 10^-4 M EDTA and 10.5% methanol (pH 3.8). Solvent was delivered at 0.6 ml/min using a Waters 515 HPLC pump. Using this HPLC solvent the following biogenic amines eluted in the following order: noradrenaline, Adrenaline, DOPAC, Dopamine, 5-HIAA, HVA, 5-HT, and 3-MT. HPLC control and data acquisition were managed by Empower software.

As for Lactobacillus rhamnosus GG [LGG], the visceral hypersensitivity result in assay [1] (neonatal colonic zymosan model) is “attenuated”. The “sensitivity to pain (EMG recordings)” value in assay [1] (p<0.05 vs Control+Zymosan, n=10, fed 40 days) is listed as “significantly attenuated”. Also, in assay [1] (zymosan-treated rats, FIG. 7), the “viscera-motor response (VMR) to CRD” value is reported as “significantly attenuated”. In assay [2], the “level of 5-hydroxyindoleacetic acid (5-HIAA)” value is given as “significant increase”, the “level of noradrenaline (NA)” value was “significant increase” and the “level of serotonin (5-HT)” value was “significant increase”.
